The values below come from publication PMC11167517, “Synthesis, computational docking and molecular dynamics studies of a new class of spiroquinoxalinopyrrolidine embedded chromanone hybrids as potent anti-cholinesterase agents” (RSC Advances, 2024).

Usually IC50 stands for the concentration at which inhibition is half-maximal.

Molecules are shown by their SMILES.

Experiment [1] concerns the target acetylcholinesterase (AChE) (Electrophorus electricus, UniProt O42275). Nature of the experiment: In vitro acetylcholinesterase inhibitory assay (DTNB/acetylthiocholine iodide, absorbance at 412 nm). It is filed as biochemical. The settings on record: IC50(BChE)/IC50(AChE). The protocol: (§1) Acetylcholine is an important neurotransmitter involved in memory and cognition.[34] The enzymes AChE and BChE act on these neurotransmitters and degrade them to attenuate acetylcholine-mediated effects.[35] In neurodegenerative diseases, a reduced acetyl choline level is detrimental, leading to impaired memory and cognition.[36] […]
(§2) of test samples and 20 µL of 0.09 units/mL acetylcholinesterase enzyme. After 15 min. of incubation at 25 °C, 10 µL of 10 mM 5,50 -dithiobis-2-nitrobenzoic acid (DTNB) was added into each well followed by 10 µL of 14 mM acetylthiocholine iodide. Thirty minutes after the initiation of enzymatic reaction, absorbance of the colored end-product was measured using BioTek Power Wave X 340 Microplate Spectrophotometer at 412 nm. For butyrylcholinesterase (BuChE) inhibitory assay, the same procedure described above was followed, except for the use of enzyme and substrate, instead of which, butyrylcholine esterase from equine serum and S-butyrylthiocholine chloride were used. IC50 value was calculated by standard protocol Each test was conducted in triplicate. Absorbance of the test samples was corrected by subtracting the absorbance of their respective blank. Percentage inhibition was calculated using […]
(§3) Absorbance of control Absorbance of Sample
(§4) Percentage of inhibition = X 100
(§5) Selectivity for AChE defined as IC 50(BChE)/IC50(AChE).
(§6) Selectivity for BChE defined as IC 50(AChE)/IC50(BChE). […]

For experiment [2], the target named is T1, butyrylcholine esterase from equine serum (BChE) (Equus caballus, UniProt P81908).
T1 construct: esterase from equine serum; from tissue; host or cells: equine serum
T1 sequence (P81908 whole entry): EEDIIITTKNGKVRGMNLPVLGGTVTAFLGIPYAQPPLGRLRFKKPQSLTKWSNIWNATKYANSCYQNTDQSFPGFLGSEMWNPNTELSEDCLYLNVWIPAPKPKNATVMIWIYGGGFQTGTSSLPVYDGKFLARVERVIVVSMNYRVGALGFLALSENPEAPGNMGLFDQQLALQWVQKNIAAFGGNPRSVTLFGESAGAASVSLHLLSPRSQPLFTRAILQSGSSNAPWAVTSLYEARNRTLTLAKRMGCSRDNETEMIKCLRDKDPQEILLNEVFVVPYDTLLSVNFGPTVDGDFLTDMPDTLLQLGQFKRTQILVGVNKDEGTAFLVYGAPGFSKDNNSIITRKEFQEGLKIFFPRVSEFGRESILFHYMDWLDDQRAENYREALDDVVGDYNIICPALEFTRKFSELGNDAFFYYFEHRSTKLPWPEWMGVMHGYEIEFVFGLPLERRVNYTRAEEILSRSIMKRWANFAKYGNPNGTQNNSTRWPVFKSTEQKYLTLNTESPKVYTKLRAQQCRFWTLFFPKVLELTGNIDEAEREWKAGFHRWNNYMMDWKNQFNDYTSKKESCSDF
Briefly: biochemical. The settings on record: for BChE selectivity: IC50(AChE)/IC50(BChE); for IC50: in vitro, triplicate, read-out: BChE inhibition IC50 μM (±SD). The procedure:
as §1, §2, §3, §4, §5, §6

acetylcholinesterase (AChE), sequence (O42275 24-633): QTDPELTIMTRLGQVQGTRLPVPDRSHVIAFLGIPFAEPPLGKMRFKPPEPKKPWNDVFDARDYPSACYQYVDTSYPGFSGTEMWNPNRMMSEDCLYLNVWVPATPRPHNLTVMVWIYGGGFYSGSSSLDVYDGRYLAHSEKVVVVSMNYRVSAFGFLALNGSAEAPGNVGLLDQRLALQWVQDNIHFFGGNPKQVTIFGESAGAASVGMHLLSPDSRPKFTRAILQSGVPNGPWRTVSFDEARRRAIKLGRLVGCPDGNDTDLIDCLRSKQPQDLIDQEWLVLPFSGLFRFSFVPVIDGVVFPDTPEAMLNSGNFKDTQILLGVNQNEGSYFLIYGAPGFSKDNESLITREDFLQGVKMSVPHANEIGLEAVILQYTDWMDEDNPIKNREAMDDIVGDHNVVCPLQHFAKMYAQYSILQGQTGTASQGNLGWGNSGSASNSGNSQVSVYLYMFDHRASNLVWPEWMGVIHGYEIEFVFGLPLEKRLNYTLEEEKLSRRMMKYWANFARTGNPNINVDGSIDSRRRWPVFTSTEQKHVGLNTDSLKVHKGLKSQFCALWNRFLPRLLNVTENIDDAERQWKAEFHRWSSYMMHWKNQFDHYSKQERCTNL

For `O=C1c2ccccc2OC[C@@]12[C@H](c1ccc(Cl)cc1)[C@@H](Cc1ccccc1)NC21c2ccccc2-c2nc3ccccc3nc21` (stereo partly drawn) [Compound 5d], the AChE selectivity in experiment [1] was determined as 2.72. Further, in experiment [2], the BChE selectivity is 0.37 and the IC50 came to 21.02 ± 0.18 µM.
On the same counts, the results for `Cc1ccc([C@@H]2[C@@H](Cc3ccccc3)NC3(c4ccccc4-c4nc5ccccc5nc43)[C@]23COc2ccccc2C3=O)cc1` (stereo partly drawn) [Compound 5g] are 1.38, 0.72 and 29.8 ± 0.12 µM.
In experiment [1], `O=C1c2ccccc2OC[C@@]12[C@H](c1ccccc1)[C@@H](Cc1ccccc1)NC21c2ccccc2-c2nc3ccccc3nc21` (stereo partly drawn) [Compound 5a] came in with an AChE selectivity of 1.27. For the same compound, in experiment [2], the BChE selectivity was 0.79 and the IC50 came out at 28.12 ± 0.25 µM.
Consider `O=C1c2ccccc2OC[C@@]12[C@H](c1cccc([N+](=O)[O-])c1)[C@@H](Cc1ccccc1)NC21c2ccccc2-c2nc3ccccc3nc21` (stereo partly drawn) [Compound 5j], for which the AChE selectivity in experiment [1] was found to be 1.93. In experiment [2], the BChE selectivity worked out at 0.52 and the concentration for half-maximal inhibition (IC50) was determined as 20.16 ± 0.2 µM.
In experiment [1], `COc1cccc([C@@H]2[C@@H](Cc3ccccc3)NC3(c4ccccc4-c4nc5ccccc5nc43)[C@]23COc2ccccc2C3=O)c1` (stereo partly drawn) [Compound 5h] returned an AChE selectivity of 1.25. Further, in experiment [2], the BChE selectivity turned out to be 0.80 and the IC50 is 30.15 ± 0.1 µM.
On the same counts, the results for `O=C1c2ccccc2OC[C@@]12[C@H](c1ccccc1F)[C@@H](Cc1ccccc1)NC21c2ccccc2-c2nc3ccccc3nc21` (stereo partly drawn) [Compound 5e] are 3.83, 0.26 and 20.2 ± 0.24 µM.
On to `O=C1c2ccccc2OC[C@@]12[C@H](c1ccc(Br)cc1)[C@@H](Cc1ccccc1)NC21c2ccccc2-c2nc3ccccc3nc21` (stereo partly drawn) [Compound 5b], for which the AChE selectivity in experiment [1] turned out to be 1.32. Moreover, in experiment [2], the BChE selectivity worked out at 0.76 and the 50% inhibitory concentration (IC50) came to 24.12 ± 0.16 µM.
Regarding `O=C1c2ccccc2OC[C@@]12[C@H](c1ccc(F)cc1)[C@@H](Cc1ccccc1)NC21c2ccccc2-c2nc3ccccc3nc21` (stereo partly drawn) [Compound 5f], in experiment [1], the AChE selectivity is given as 5.67. Further, in experiment [2], the BChE selectivity stood at 0.18 and the IC50 stood at 18.14 ± 0.06 µM.
Compound `O=C1c2ccccc2OCC12C(c1ccccc1Cl)C(Cc1ccccc1)NC21c2ccccc2-c2nc3ccccc3nc21` (stereo not drawn) [Compound 5c, 5-Benzyl-4-(2-chlorophenyl)-2-spiro[2,6′′]indenoquinoxalino-3-spiro[3,3′]-chromanonopyrrolidine] showed an AChE selectivity in experiment [1] of 4.92. Moreover, in experiment [2], the BChE selectivity was determined as 0.20 and the IC50 was 22.16 ± 0.14 µM.
Consider `COc1ccc([C@@H]2[C@@H](Cc3ccccc3)NC3(c4ccccc4-c4nc5ccccc5nc43)[C@]23COc2ccccc2C3=O)cc1` (stereo partly drawn) [Compound 5i], for which the AChE selectivity in experiment [1] is recorded as 1.29. Moreover, in experiment [2], the BChE selectivity amounted to 0.77 and the IC50 amounted to 29.18 ± 0.12 µM.
